Tests used:
Type in all cases: cell-based
human HNF-4α = assay: intracellular HNF-4α degradation test by adding calcium ionophore, HEK293T cells; conditions: 10 μg/mL, 3 hours, nuclear and cytoplasmic fraction
Experimental: After culturing a total number of 0.7×10^6 HEK293T cells for 22 hours at 37° C. under the presence of 5% CO2 (Petri dish with 60 mm diameter), 2 μg of HNF-4α expression plasmid (see Example 2) was transfected thereto using the FuGENE 6 Transfection Reagent. After two days of culturing, the culture medium was replaced with a medium that contained 10 μg/mL of ionophore A23187 (4-bromo-calcium ionophore A23187, Sigma Chemical Co.), and the culturing was continued for 3 hours. For a negative control group, the culture medium was replaced with a medium to which dimethylsulfoxide (DMSO) was added instead of the ionophore. After culturing for the pre-determined time, the cells were washed with cold PBS (−), suspended in 300 μl of hypotonic cell lysis buffer (10 mM HEPES, pH 7.5/10 mM MgCl2/42 mM KCl/1 mM PMSF), and left to stand on ice for 20 mins. The cells were disrupted with a homogenizer, and then centrifuged at 4° C. for 10 minutes at 600 g, to collect the resulting supernatant as a cytoplasmic fraction and the precipitation as a nuclear fraction. The nuclear fraction was further suspended in solution comprising 2×PBS/1% Nonidet P-40/0.1% SDS, and disrupted by ultrasonication. An equal volume of 2×SDS sample buffer was added thereto, heated for 5 minutes, and then subjected to 5-20% SDS-PAGE for separation. Detection of HNF-4α was conducted by the same method as in Example 4.

human HNF-1α = assay: intracellular HNF-1α degradation test by adding calcium ionophore, HEK293T cells; conditions: 10 μg/mL, 4 hours
Experimental: After culturing a total number of 0.8×10^6 HEK293T cells for 5 hours at 37° C. under the presence of 5% CO2 (Petri dish with 60 mm diameter), 2 μg of an HNF-1α expression plasmid (see Example 7) was transfected thereto using the FuGENE 6 Transfection Reagent. After two days of culturing, the culture medium was replaced with a medium containing 10 μg/mL of ionophore A23187 (Sigma Chemical Co.) and 0.2% DMSO, and then the culturing was continued for 4 hours. For a negative control group, the culture medium was replaced with a medium containing 0.2% DMSO. After culturing for the pre-determined time, the cells were washed with cold PBS (−), suspended in 350 μl of hypotonic cell lysis buffer, and then left to stand on ice for 20 mins. The cells were disrupted with a homogenizer, and then centrifuged at 4° C. for 10 minutes at 600 g to collect the resulting supernatant as a cytoplasmic fraction and the precipitation as a nuclear fraction. The nuclear fraction was further suspended in solution comprising 2×PBS/1% Nonidet P-40/0.1% SDS, and disrupted by ultrasonication. The protein concentration of cell fractions was determined with Coomassie Plus Protein Assay Reagent Kit (Pierce Chemical Corp.). Each of the prepared samples was added to an equal volume of 2×SDS sample buffer, heated for 5 minutes, and then subjected to 5-20% SDS-PAGE for separation. […]

human IPF-1 = assay: intracellular IPF-1 degradation test by adding calcium ionophore, HEK293T cells; conditions: 10 μg/mL, 4 hours
Experimental: After culturing a total number of 0.5×10^6 HEK293T cells for 24 hours at 37° C. under the presence of 5% CO2 (Petri dish with 60 mm diameter), 2 μg of IPF-1 expression plasmid (see Example 10) was transfected thereto using the FuGENE 6 Transfection Reagent. After two days of culturing, the culture medium was replaced with a medium containing 10 μg/mL of ionophore A23187 (Sigma Chemical Co.), and the culturing was continued for further 4 hours. For a negative control group, the culture medium was replaced with a medium containing 0.2% DMSO. After culturing for the pre-determined time, the cells were washed with cold PBS (−), suspended in 350 μl of hypotonic cell lysis buffer, and then left to stand on ice for 20 mins. The cells were disrupted with a homogenizer, and then centrifuged at 4° C. for 10 minutes at 600 g to collect the supernatant as a cytoplasmic fraction and the precipitation as a nuclear fraction. The nuclear fraction was further suspended in solution comprising 2×PBS/1% Nonidet P40/0.1% SDS, and disrupted by ultrasonication. The nuclear fraction and cell fraction were added to an equal volume of 2×SDS sample buffer, heated for 5 minutes, and then subjected to 5-20% SDS-PAGE for separation. Detection of IPF-1 was conducted by the same method as in Example 10.

4-bromo-calcium ionophore A23187
observed: degradation of HNF-4α by adding ionophore (human HNF-4α) | degradation of HNF-1α by addition of ionophore (human HNF-1α) | degradation of IPF-1 by addition of ionophore (human IPF-1)
